Results: patent US20090155387A1, “STABLE PHARMACEUTICAL COMPOSITION COMPRISING BETA-LACTAM ANTIBIOTIC AND ION-CHELATING AGENT” (priority 2006, published 2009)

Experiment: Amounts of β-lactam antibiotic, β-lactamase inhibitor and aminoglycoside antibiotic in solution over time (reverse-phase LC/HPLC)
Format: physicochemical
Procedure: The amounts of β-lactam antibiotics and β-lactamase inhibitor were determined using C18 reverse-phase LC and UV-VIS detector (Tianjin […] Co., Ltd., analysis method No. HM-K-03). The content of aminoglycoside antibiotics was measured using reverse-phase HPLC and evaporation-light-scattering detector (ELSD detector) (Tianjin […] Co., Ltd., analysis method No. HM-K-08). The amount of antibiotic component at each time point was expressed as a percentage with respect to the amount at the initial time. The relative amount of each antibiotic component in the composition at each time point was expressed as peak area ratio with respect to the corresponding peak area of an external standard.

CC1(C)[C@H](C(=O)O)N2C(=O)C[C@H]2S1(=O)=O [Sulbactam sodium]
amount (percentage of initial amount) (in Example 4 solution (no EDTA), pH 6.75, room temperature, 0 h): 101.4% | amount (percentage of initial amount) (in Example 4 solution (no EDTA), pH 6.75, room temperature, 1 h): 101.4% | amount (percentage of initial amount) (in Example 4 solution (no EDTA), pH 6.75, room temperature, 2 h): 101.5% | amount (percentage of initial amount) (in Example 4 solution (no EDTA), pH 6.75, room temperature, 4 h): 109.7% | amount (percentage of initial amount) (in Example 4 solution (no EDTA), pH 6.75, room temperature, 6 h): 103.2% | amount (percentage of initial amount) (in Example 5 solution, pH 6.75, room temperature, 0 h): 101.4% | amount (percentage of initial amount) (in Example 5 solution, pH 6.75, room temperature, 1 h): 101.4% | amount (percentage of initial amount) (in Example 5 solution, pH 6.75, room temperature, 2 h): 101.5% | amount (percentage of initial amount) (in Example 5 solution, pH 6.75, room temperature, 4 h): 109.7% | amount (percentage of initial amount) (in Example 5 solution, pH 6.75, room temperature, 6 h): 103.2% | amount (percentage of initial amount) (in Example 6 solution, pH 6.5, room temperature, 0 h): 99.62% | amount (percentage of initial amount) (in Example 6 solution, pH 6.5, room temperature, 1 h): 100.4% | amount (percentage of initial amount) (in Example 6 solution, pH 6.5, room temperature, 2 h): 100.2% | amount (percentage of initial amount) (in Example 6 solution, pH 6.5, room temperature, 4 h): 100.2% | amount (percentage of initial amount) (in Example 7 solution, pH 6.75, room temperature, 0 h): 96.84% | amount (percentage of initial amount) (in Example 7 solution, pH 6.75, room temperature, 1 h): 94.43% | amount (percentage of initial amount) (in Example 7 solution, pH 6.75, room temperature, 2 h): 93.35% | amount (percentage of initial amount) (in Example 7 solution, pH 6.75, room temperature, 4 h): 93.23% | amount (percentage of initial amount) (in Example 7 solution, pH 6.75, room temperature, 6 h): 92.13% | amount (percentage of initial amount) (in Example 7 solution, pH 6.75, room temperature, 8 h): 93.38% | amount (percentage of initial amount) (in Example 12 solution (no aminoglycoside) from freeze-dried powder stored 7 days at 0° C., redissolved, 0 h): 98.5% | amount (percentage of initial amount) (in Example 12 solution (no aminoglycoside) from freeze-dried powder stored 7 days at 0° C., redissolved, 1 h): 98.7% | amount (percentage of initial amount) (in Example 12 solution (no aminoglycoside) from freeze-dried powder stored 7 days at 0° C., redissolved, 2 h): 98.2% | amount (percentage of initial amount) (in Example 12 solution (no aminoglycoside) from freeze-dried powder stored 7 days at 0° C., redissolved, 4 h): 95.6% | amount (percentage of initial amount) (in Example 12 solution (no aminoglycoside) from freeze-dried powder stored 7 days at 0° C., redissolved, 6 h): 94.0% | amount (percentage of initial amount) (in Example 12 solution (no aminoglycoside) from freeze-dried powder stored 7 days at 0° C., redissolved, 8 h): 96.1% | amount (percentage of initial amount) (in Example 14 solution, pH 6.5, room temperature, 0 h): 92.44% | amount (percentage of initial amount) (in Example 14 solution, pH 6.5, room temperature, 1 h): 91.27% | amount (percentage of initial amount) (in Example 14 solution, pH 6.5, room temperature, 2 h): 90.78% | amount (percentage of initial amount) (in Example 14 solution, pH 6.5, room temperature, 4 h): 88.38% | amount (percentage of initial amount) (in Example 14 solution, pH 6.5, room temperature, 6 h): 86.86% | amount (percentage of initial amount) (in Example 15 solution, pH 6.5, room temperature, 0 h): 99.50% | amount (percentage of initial amount) (in Example 15 solution, pH 6.5, room temperature, 1 h): 96.28% | amount (percentage of initial amount) (in Example 15 solution, pH 6.5, room temperature, 2 h): 102.5% | amount (percentage of initial amount) (in Example 15 solution, pH 6.5, room temperature, 4 h): 95.78% | amount (percentage of initial amount) (in Example 15 solution, pH 6.5, room temperature, 6 h): 70.74% | amount (percentage of initial amount) (in Example 17 solution, pH 6.5, room temperature, 0 h): 114.3% | amount (percentage of initial amount) (in Example 17 solution, pH 6.5, room temperature, 1 h): 95.83% | amount (percentage of initial amount) (in Example 17 solution, pH 6.5, room temperature, 2 h): 93.75% | amount (percentage of initial amount) (in Example 17 solution, pH 6.5, room temperature, 4 h): 93.78% | amount (percentage of initial amount) (in Example 17 solution, pH 6.5, room temperature, 6 h): 95.65% | amount (percentage of initial amount) (in Example 17 solution, pH 6.5, room temperature, 8 h): 101.0% | amount (percentage of initial amount) (in Example 18 solution (2.5% fructose), pH 6.5, room temperature, 0 h): 98.07% | amount (percentage of initial amount) (in Example 18 solution (2.5% fructose), pH 6.5, room temperature, 1 h): 98.13% | amount (percentage of initial amount) (in Example 18 solution (2.5% fructose), pH 6.5, room temperature, 2 h): 72.96% | amount (percentage of initial amount) (in Example 18 solution (2.5% fructose), pH 6.5, room temperature, 4 h): 95.16% | amount (percentage of initial amount) (in Example 18 solution (2.5% fructose), pH 6.5, room temperature, 6 h): 99.65% | amount (percentage of initial amount) (in Example 18 solution (2.5% fructose), pH 6.5, room temperature, 8 h): 104.9% | amount (percentage of initial amount) (in Example 19 solution, pH 6.75, room temperature, 0 h): 108.8% | amount (percentage of initial amount) (in Example 19 solution, pH 6.75, room temperature, 1 h): 109.6% | amount (percentage of initial amount) (in Example 19 solution, pH 6.75, room temperature, 2 h): 111.7% | amount (percentage of initial amount) (in Example 19 solution, pH 6.75, room temperature, 4 h): 115.9% | amount (percentage of initial amount) (in Example 19 solution, pH 6.75, room temperature, 6 h): 120.7% | amount (percentage of initial amount) (in Example 19 solution, pH 6.75, room temperature, 8 h): 125.6% | amount (percentage of initial amount) (in Example 20 solution (no EDTA), pH 6.75, room temperature, 0 h): 105.6% | amount (percentage of initial amount) (in Example 20 solution (no EDTA), pH 6.75, room temperature, 1 h): 112.2% | amount (percentage of initial amount) (in Example 20 solution (no EDTA), pH 6.75, room temperature, 2 h): 112.6% | amount (percentage of initial amount) (in Example 20 solution (no EDTA), pH 6.75, room temperature, 4 h): 118.5% | amount (percentage of initial amount) (in Example 20 solution (no EDTA), pH 6.75, room temperature, 6 h): 123.3% | amount (percentage of initial amount) (in Example 20 solution (no EDTA), pH 6.75, room temperature, 8 h): 127.1% | amount (percentage of initial amount) (in Example 22 solution (2.5% fructose), pH 6.0, room temperature, 0 h): 101.4% | amount (percentage of initial amount) (in Example 22 solution (2.5% fructose), pH 6.0, room temperature, 1 h): 107.6% | amount (percentage of initial amount) (in Example 22 solution (2.5% fructose), pH 6.0, room temperature, 2 h): 101.3% | amount (percentage of initial amount) (in Example 22 solution (2.5% fructose), pH 6.0, room temperature, 4 h): 104.4% | amount (percentage of initial amount) (in Example 22 solution (2.5% fructose), pH 6.0, room temperature, 6 h): 104.4% | amount (percentage of initial amount) (in Example 22 solution (2.5% fructose), pH 6.0, room temperature, 8 h): 91.39% | amount (percentage of initial amount) (in Example 24 solution, pH 6.75, room temperature, 0 h): 90.06% | amount (percentage of initial amount) (in Example 24 solution, pH 6.75, room temperature, 1 h): 94.26% | amount (percentage of initial amount) (in Example 24 solution, pH 6.75, room temperature, 2 h): 100.5% | amount (percentage of initial amount) (in Example 24 solution, pH 6.75, room temperature, 4 h): 89.94% | amount (percentage of initial amount) (in Example 24 solution, pH 6.75, room temperature, 6 h): 94.26% | amount (percentage of initial amount) (in Example 24 solution, pH 6.75, room temperature, 8 h): 105.0% | amount (percentage of initial amount) (in Example 25 solution, pH 6.75, room temperature, 0 h): 99.32% | amount (percentage of initial amount) (in Example 25 solution, pH 6.75, room temperature, 1 h): 107.5% | amount (percentage of initial amount) (in Example 25 solution, pH 6.75, room temperature, 2 h): 97.91% | amount (percentage of initial amount) (in Example 25 solution, pH 6.75, room temperature, 4 h): 83.79% | amount (percentage of initial amount) (in Example 25 solution, pH 6.75, room temperature, 6 h): 94.52% | amount (percentage of initial amount) (in Example 25 solution, pH 6.75, room temperature, 8 h): 105.5%
